Results published in patent publication US11091490B2, “3-amino-1,5-dihydro-pyrazolo[3,4-d]pyrimidin-4-ones as cyclin dependent kinase inhibitors” (Oncotyrol Center for Personalized Cancer Medicine GMBH, priority 2016, dated 2021).
In brackets after ≈: the same amount, converted by molar mass. Read-outs that look alike come from different tables or passages of the source.

Legend:
[1] = system: A375 melanoma cells; assay: PARP cleavage Western blot A375; format: cell-based; conditions: A375, 24 h, 100 nM, FIG. 1B legend 0.08 μM
Excerpt: (§1) In order to investigate the mode of action (MOA) related to the antitumor activity of the compounds of the present invention (in particular compound 86) in solid tumors and multiple myeloma, two experimental strategies were used to confirm the postulated MOA: 1) monitoring of apoptosis induction and 2) cell cycle analysis upon treatment with compound 86. Three cancer cell lines (LP-1, (multiple myeloma cells, DSMZ ACC 41), A375 (melanoma cells), and HeLa (cervix carcinoma cells)) as well as control cells (HS-5 bone marrow stroma cells, ATCC CRL-11882) were used to obtain mechanistic insight into the antitumor activity of compound 86.
(§2) Annexin V staining and Poly(ADP-ribose)-Polymerase 1 (PARP) protein cleavage was analyzed to identify a pro-apoptotic effect of compound 86 on tumor cells in accordance with the method of Koopman G, et. al. Blood 1994; 1; 84(5):1415-20. Annexin V allows the identification of cell surface changes that occur early during the apoptotic process by in situ detection, which is ideal for the analysis with adherent cells. Cleavage of PARP-1 by caspases is considered to be a hallmark of apoptosis and was therefore applied to monitor apoptosis induction after 24 h of treatment with 100 nM of compound 86.

[2] = system: HS-5 bone marrow stroma cells (control); assay: Cell cycle analysis (propidium iodide FACS) HS-5; format: cell-based; conditions: HS-5 control cells, 100 nM, 12 and 24 h
Excerpt: as §1
(§3) Measuring of DNA content in cells is a well-established method for monitoring cell proliferation, cell cycle, fragmentation of nuclei (apoptosis) and DNA ploidy. Proliferating cells progress through various phases of the cell cycle (G0, G1, S, G2, and M phase). At different stages of the cell cycle and life cycle, cell nuclei contain different amounts of DNA. The DNA content in cell nuclei was analyzed by propidium iodide (PI) staining and FACS analysis after 12 and 24 h of treatment with 100 nM of compound 86 in accordance with the method of Desai Brijal M. et. al. PLOS Vol. 8; Issue 3; p. 1-11, 2013.

[3] = system: LP-1 multiple myeloma cells; assay: Cell cycle analysis (propidium iodide FACS) LP1; format: cell-based
Excerpt: as §1, §3

[4] = system: A375 melanoma cells; assay: Cell cycle analysis (propidium iodide FACS) A375; format: cell-based
Excerpt: as §1, §3

[5] = system: HCT116 (colon); assay: In vitro proliferation screening (Sulforhodamin B) HCT116; format: cell-based, human; conditions: HCT116, 72 h
Excerpt: (§4) In order to evaluate the antitumor activity of the compounds of the present invention, in particular compound 86, in solid tumors, an in vitro proliferation screening in a panel of 10 different human cancer cell lines derived from solid tumors (see Table 5, below) as a model system.
(§5) Six 10-fold dilutions of compound 86 have been prepared in DMSO, from 5×10^−9 M to 5×10^−4. Single data points have been tested for each concentration. The final concentration of DMSO was 0.1%. The duration of the treatment was 72 hours. The growth inhibition was measured by using Sulforhodamin B, a protein-staining assay in accordance with Vichai V et. al. Nat. Protoc. 2006; 1(3):1112-6. Activity of the agents was determined by evaluating the following parameters: IC50, GI50, IC10, GI10, TGI, LC50, IC90 and GI90 (if these values could be calculated).

[6] = system: HT1080 (connective tissue); assay: In vitro proliferation screening (Sulforhodamin B) HT1080; format: cell-based, human; conditions: HT1080, 72 h
Excerpt: as §4, §5

[7] = biological target: T1, CDK13 (Homo sapiens, UniProt Q14004); assay: Target selectivity profile (DiscoverX KinomeScan) CDK13; format: binding
T1 construct: purchased DiscoverX
T1 sequence (Q14004 whole entry): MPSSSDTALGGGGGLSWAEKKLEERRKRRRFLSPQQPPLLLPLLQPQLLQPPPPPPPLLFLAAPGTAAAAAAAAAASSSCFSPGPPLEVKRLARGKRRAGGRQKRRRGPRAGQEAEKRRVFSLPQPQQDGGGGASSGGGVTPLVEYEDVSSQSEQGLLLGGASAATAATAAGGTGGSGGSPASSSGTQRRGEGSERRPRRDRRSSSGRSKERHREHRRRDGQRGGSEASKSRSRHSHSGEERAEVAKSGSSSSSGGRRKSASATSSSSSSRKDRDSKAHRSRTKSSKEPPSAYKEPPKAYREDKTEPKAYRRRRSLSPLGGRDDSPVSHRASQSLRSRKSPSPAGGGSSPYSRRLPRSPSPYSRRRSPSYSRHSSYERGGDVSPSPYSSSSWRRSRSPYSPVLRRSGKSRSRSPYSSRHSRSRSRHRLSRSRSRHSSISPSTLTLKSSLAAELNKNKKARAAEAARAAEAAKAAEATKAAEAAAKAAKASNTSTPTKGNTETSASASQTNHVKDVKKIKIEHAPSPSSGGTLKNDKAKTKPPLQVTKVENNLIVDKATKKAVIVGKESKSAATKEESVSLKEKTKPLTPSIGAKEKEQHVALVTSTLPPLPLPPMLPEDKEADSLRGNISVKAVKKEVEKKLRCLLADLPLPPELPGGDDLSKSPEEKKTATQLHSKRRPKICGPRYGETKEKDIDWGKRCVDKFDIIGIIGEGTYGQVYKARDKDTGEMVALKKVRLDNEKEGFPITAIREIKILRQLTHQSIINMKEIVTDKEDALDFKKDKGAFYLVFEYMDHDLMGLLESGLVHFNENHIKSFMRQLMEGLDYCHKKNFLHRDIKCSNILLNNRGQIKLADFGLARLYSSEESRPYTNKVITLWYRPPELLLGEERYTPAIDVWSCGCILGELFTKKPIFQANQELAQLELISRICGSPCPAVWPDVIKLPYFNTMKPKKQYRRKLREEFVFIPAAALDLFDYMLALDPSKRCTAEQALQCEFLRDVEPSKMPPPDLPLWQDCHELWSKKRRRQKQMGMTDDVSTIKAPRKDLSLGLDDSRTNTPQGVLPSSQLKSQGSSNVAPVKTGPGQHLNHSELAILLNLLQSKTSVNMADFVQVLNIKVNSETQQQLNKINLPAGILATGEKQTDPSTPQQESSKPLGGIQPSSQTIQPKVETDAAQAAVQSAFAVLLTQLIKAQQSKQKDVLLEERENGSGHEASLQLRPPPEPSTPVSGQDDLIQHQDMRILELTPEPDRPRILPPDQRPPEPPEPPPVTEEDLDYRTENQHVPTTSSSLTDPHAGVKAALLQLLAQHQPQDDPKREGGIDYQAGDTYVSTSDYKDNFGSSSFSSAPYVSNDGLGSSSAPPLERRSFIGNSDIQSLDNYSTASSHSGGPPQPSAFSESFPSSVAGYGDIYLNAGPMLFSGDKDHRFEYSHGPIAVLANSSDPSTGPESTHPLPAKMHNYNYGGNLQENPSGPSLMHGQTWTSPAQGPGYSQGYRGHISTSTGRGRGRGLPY
Excerpt: (§6) 3. Target Selectivity Profile (DiscoverX KinomeScan)
(§7) According to an analysis of kinase inhibitory selectivity carried out in accordance with Karaman M W et al., Nat Biotechnol. 2008 January; 26(1):127-32. doi: 10.1038/nbt1358.

[8] = system: BXPC3 (pancreas); assay: In vitro proliferation screening (Sulforhodamin B) BXPC3; format: cell-based, human; conditions: BXPC3, 72 h
Excerpt: as §4, §5

[9] = system: DU145 (prostate); assay: In vitro proliferation screening (Sulforhodamin B) DU145; format: cell-based; conditions: Homo sapiens, DU-145; DU145, 72 h; unit M
Excerpt: as §4, §5

[10] = system: SKNAS (brain); assay: In vitro proliferation screening (Sulforhodamin B) SKNAS; format: cell-based; conditions: Homo sapiens, SK-N-AS, 72 h, unit M
Excerpt: as §4, §5

[11] = system: most CYP enzymes; assay: Drug-drug interactions: CYP inhibition; format: in vitro ADME
Excerpt: In assays carried out in accordance with the “Guideline on the investigation of drug interactions”, CPMP/EWP/560/95/Rev. 1 Corr. 2, European Medicines Agency, Committee for Human Medicinal Products (CHMP) and “Guidance for Industry, Drug Interaction Studies—Study Design, Data Analysis, Implications for Dosing, and Labeling Recommendations”, U.S. Department of Health and Human Services.

[12] = system: HeLa cervix carcinoma cells; assay: PARP cleavage Western blot HeLa; format: cell-based; conditions: 24 h, 100 nM, FIG. 1B legend 0.08 μM
Excerpt: as §1, §2

[13] = system: U2OS (bone); assay: In vitro proliferation screening (Sulforhodamin B) U2OS; format: cell-based, human; conditions: 72 h
Excerpt: as §4, §5

[14] = system: NCIH82 (lung); assay: In vitro proliferation screening (Sulforhodamin B) NCIH82; format: cell-based; conditions: Homo sapiens, NCI-H82; NCIH82, 72 h; unit M
Excerpt: as §4, §5

[15] = biological target: T2, CDK16 (Homo sapiens, UniProt Q00536); assay: Target selectivity profile (DiscoverX KinomeScan) CDK16; format: binding
T2 construct: purchased DiscoverX
T2 sequence (Q00536 whole entry): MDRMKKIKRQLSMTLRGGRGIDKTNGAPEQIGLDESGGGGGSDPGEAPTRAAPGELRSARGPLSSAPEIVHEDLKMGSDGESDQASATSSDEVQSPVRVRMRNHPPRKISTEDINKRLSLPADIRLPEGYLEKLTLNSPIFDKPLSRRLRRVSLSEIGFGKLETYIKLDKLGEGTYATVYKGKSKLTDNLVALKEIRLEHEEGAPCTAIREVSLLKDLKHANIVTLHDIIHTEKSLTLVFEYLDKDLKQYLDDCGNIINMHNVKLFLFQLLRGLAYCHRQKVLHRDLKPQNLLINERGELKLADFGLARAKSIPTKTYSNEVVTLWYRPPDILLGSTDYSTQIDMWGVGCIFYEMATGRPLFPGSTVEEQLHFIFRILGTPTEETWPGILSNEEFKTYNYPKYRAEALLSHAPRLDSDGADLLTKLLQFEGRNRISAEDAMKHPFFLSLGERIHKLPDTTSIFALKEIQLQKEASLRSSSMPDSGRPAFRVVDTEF
Excerpt: as §6, §7

[16] = Solubility in water; format: physicochemical
Excerpt: The water solubility of preferred compound 86 and the compound of Example 49 of WO 02/967654 A2 have been compared.

GI50 ([5]; unit M): 5.82 nM
GI50 ([5]; Homo sapiens, HCT-116, 72 h, rounded value of the conclusions): 5.8 nM
GI50 ([5]; Homo sapiens, HCT-116, 72 h, unit M): 5.82 nM
IC50 ([5]; Homo sapiens, HCT-116, unit M): 6.05 nM
GI50 ([6]; Homo sapiens, HT-1080, unit M): 36.4 nM
IC50 ([6]; Homo sapiens, HT-1080, unit M): 38 nM
kinase inhibitory selectivity: CDK13 [7]: active as inhibitors
GI50 ([8]; Homo sapiens, BXPC-3, unit M): 36.3 nM
IC50 ([8]; Homo sapiens, BXPC-3, unit M): 41.8 nM
GI50 [9]: 32.4 nM
IC50 [9]: 37.3 nM
GI50 [10]: 41.2 nM
IC50 [10]: 74.3 nM
inhibitory activity of most CYP enzymes [11]: only weak inhibitory activity
GI50 ([13]; Homo sapiens, unit M): 94.2 nM
IC50 ([13]; Homo sapiens, unit M): 103 nM
kinase inhibitory selectivity: CDK16 [15]: active as inhibitors
solubility ([16]; aqueous buffer, pH 2.0, read-out: Solubility in water at pH 2.0): 129 µM (≈ 80.2 µg/mL)
solubility ([16]; pH 7.4, aqueous buffer, read-out: Solubility in water at pH 7.4): 105 µM (≈ 65.3 µg/mL)
Compound: CCN(CC)CC(=O)Nc1ccc(Cc2nc3c(c(N(C)C)nn3-c3c(Cl)cc(S(N)(=O)=O)cc3Cl)c(=O)[nH]2)cc1 [Compound 86, N-{4-[1-(2,6-Dichloro-4-sulfamoyl-phenyl)-3-dimethylamino-4-oxo-4,5-dihydro-1H-pyrazolo[3,4-d]pyrimidin-6-ylmethyl]-phenyl}-2-diethylamino-acetamide]
PARP cleavage [1]: specific induction of PARP cleavage
PARP cleavage ([1]; listed as Otviciclib): induction of PARP cleavage
cell cycle profile (DNA content) [2]: remained unchanged
cell cycle profile (DNA content) ([3]; LP1, 0.1 μM, 12 and 24 h (FIG. 1A)): cell cycle defects and a progressive enrichment of the sub G1 group
cell cycle profile (DNA content) ([3]; LP1, 100 nM, 12 h): strong enrichment of nuclei in the sub_G1 fraction
cell cycle profile (DNA content) ([3]; LP1, 100 nM, 24 h): almost all intact nuclei of LP1 cells disappeared
cell cycle profile (DNA content) ([4]; A375, 0.1 μM, 12 and 24 h (FIG. 1A)): cell cycle defects and a progressive enrichment of the sub G1 group
cell cycle profile (DNA content) ([4]; A375, 100 nM, 12 h): G2/M arrest
cell cycle profile (DNA content) ([4]; A375, 100 nM, 24 h): started to enrich in the sub_G1 fraction
growth inhibitory response in words [6]: growth inhibition in the middle nanomolar range
growth inhibitory response in words [8]: growth inhibition in the middle nanomolar range
PARP cleavage [12]: specific induction of PARP cleavage
PARP cleavage ([12]; listed as Otviciclib): induction of PARP cleavage
growth inhibitory response in words [13]: responded rather weakly in the micromolar range
GI50 [14]: 16.5 nM
IC50 [14]: 21.3 nM
